The values that follow come from publication PMC11636681, “Pharmacokinetics and pharmacodynamics of antibacterial peptide NZX in Staphylococcus aureus mastitis mouse model” (Applied Microbiology and Biotechnology, 2024).

Assay [1] has as its system S. aureus ATCC 43300. As to the kind of experiment: Post antibiotic effect (PAE). The format is cell-based, Staphylococcus aureus. To be noted: 2 h exposure at 1 × to 8 × MIC, 1 × 10^8 CFU/mL, triplicate. The procedure: PAE was performed based on the method of Zhang et al. (Zhang et al. [2014]). S. aureus E48, S. aureus ATCC 25923 and S. aureus ATCC 43300 were cultured at 37 °C in MHB medium to the log-phase. Then, the diluted cells (1 × 10^8 CFU/mL) were exposed to NZX with final concentration of 1 × , 2 × , 4 × and 8 × MIC in the 48-well plates for 2 h at 37 °C. After incubation, NZX were removed by diluting 1:1000 with MHB medium. Viable counts were determined immediately after drug reconstruction and at 1–2 h interval for at least 10 h. PAE determination was calculated as PAE (h) = T-C, where T is the time (h) that required to increase by tenfold for the drug-treated viable count from the moment of drug reconstruction and C is the time (h) required to increase by tenfold for cell density without treatment. The experiments were conducted in triplication.

The test system of assay [2] is S. aureus E48. As to the kind of experiment: In vitro dose-killing curves (24 h). The format is cell-based, Staphylococcus aureus. The conditions noted are these: for EC50: Staphylococcus aureus, 50% reduction in Log10 CFU at 24 h between minimum and maximum; for Cs: concentration causing no apparent growth in Log10 CFU at 24 h vs initial inoculum. As to the method: (§1) The in vitro dose-killing curves of NZX against the test S. aureus strains were conducted as previous described (Brinch et al. [2010]), with some modification. The S. aureus cells in mid-log phage were diluted. Then, the killing curves of NZX against S. aureus strains were carried out in the 48-well plate. Specifically, a volume of 50 μL NZX (0.6–150 μM) was mixed with 450 μL of the above diluted bacterial suspension (5 × 10^5 CFU/mL), and the mixtures were incubated in the Micro Oscillator for 24 h (600 rpm, 37 °C). Subsequently, the bacteria suspensions were plated on MHA medium to count. Lincomycin and ceftiofur were set as antibiotic controls, respectively. PBS was negative control. Results were expressed as the average of three independent experiments data.

Assay [3] deals with S. aureus ATCC 25923. As to the kind of experiment: In vitro dose-killing curves (24 h). The format is cell-based, Staphylococcus aureus. To be noted: for EC50: Staphylococcus aureus, ATCC25923, 50% reduction in Log10 CFU at 24 h between minimum and maximum; for Cs: concentration causing no apparent growth in Log10 CFU at 24 h vs initial inoculum. As to the method:
as §1

The subject of assay [4] is S. aureus ATCC 43300. Put plainly: MIC and MBC determination (CLSI broth microdilution). Type of assay: cell-based. The conditions noted are these: Staphylococcus aureus; for MIC: ATCC43300, 1 × 10^5 CFU/mL, 16–18 h, 37 °C; for MBC: ATCC43300, lowest concentration giving 99.9% died bacteria. As to the method:
(§2) Minimal Inhibitory Concentration (MIC), Minimal Bactericidal Concentration (MBC) and Mutant Prevention Concentration (MPC).
(§3) The MIC and MBC values of NZX against the test S. aureus strain were determined according to Clinical Laboratory Standards Institute (Watts et al. [2013]). Briefly, a volume of 10 μL diluted NZX with final concentration (1.25–1280 μg/mL) and 90 μL of mid-log phase S. aureus cells (1 × 10^5 CFU/mL) were added into a 96-well plate and co-incubated for 16–18 h at 37 °C. MIC value was defined as the lowest concentration of NZX at which no visible bacterial growth was observed. In addition, the bacteria suspensions were plated on Mueller–Hinton agar (MHA) medium to count, and the lowest concentration of NZX that results in 99.9% of died bacteria was the MBC value.
(In general: Dilution methods test growth across graded concentrations, often in twofold steps.)

The test system of assay [5] is S. aureus E48. The description is as above. The format is cell-based. To be noted: Staphylococcus aureus; for MIC: 1 × 10^5 CFU/mL, 16–18 h, 37 °C; for MBC: lowest concentration giving 99.9% died bacteria. The procedure:
as §2, §3

In assay [6] the test system is S. aureus ATCC 25923. The assay is described as above. The conditions noted are these: Staphylococcus aureus; for MIC: ATCC25923, 1 × 10^5 CFU/mL, 16–18 h, 37 °C; for MBC: ATCC25923, lowest concentration giving 99.9% died bacteria. The format is cell-based. As to the method: as §2, §3
Assay [7] concerns S. aureus ATCC 43300. Put plainly: Mouse mastitis model, bacterial counts in mammary tissues. The format is in vivo. The conditions noted are these: 24 h after treatment, vs PC group. The text has this: The 7 to 8-weeks old ICR mice (80 females, 40 males) were housed in independent ventilated cages, and feed with autoclaved laboratory food and water. Female mice in heat were put into the cage of males (females:males, 2:1) overnight and checked for vaginal plugs at the following morning to induce pregnancy. ICR-lactating mice were used at 6 to 8 days after the birth of the offspring. The mouse mastitis model was established as previously described (Li et al. [2017]). Mice were randomly divided into nine groups: NC group (uninfected group), PC group (infected but without treatment), NZX groups (25, 50, 100, 200 and 400 μg/gland, respectively), lincomycin group (100 μg/gland), and ceftiofur group (100 μg/gland). Each experimental group has six independent experiments with three mice. Specially, the pups were removed 1 h before the intramammary injection of both L4 (on the left) and R4 (on the right) abdominal mammal glands. A 100 μL of S. aureus strains (1 × 10^6 CFU/mL) was administrated to mice in PC, NZX, lincomycin and ceftiofur groups, and the same volume of sterile physiological saline was administrated to mice in NC group. Glands of 3 h post-infection were injected with sterile physiological saline, NZX, lincomycin, or ceftiofur. The mice were euthanized after the treatment for 24 h, and their mammary glands were dissected, weighed, and homogenized. The animal experiments were performed according to the Animal Care and Use Committee of the Feed Research Institute, Chinese Academy of Agricultural Sciences (Permit Number: AEC-CAAS-20090609) in accordance with the Guidelines for Animal Experimentation.
After mouse sacrifice, one part of mammary tissue was taken for bacterial count, and the other part was used for the histopathological analysis. Specifically, tissues were aseptically collected immediately from the dead mice, weighted, homogenized with sterile physiological saline (1:1, W:V). Next, the homogenates were serially diluted (ten-fold dilutions) in physiological saline, plated on MHA plate, and then cultured overnight at 37 °C. The bacterial number on each plate was counted and the results were expressed as Log10 CFU per gram of mammary tissues. In addition, mammary tissues were fixed in 4% paraformaldehyde, then embedded in paraffin, cut into 5 μm sections, and later stained by hematoxylin–eosin (H&E). The stained sections were observed under a light microscope (× 200) for pathological morphology and scoring of mammary tissues (Schmidt et al. [1992]).

In brackets after ≈: the same amount, converted by molar mass. Positions of bridges follow the written chain, without caps; N, C: chain ends. Residues, ends and D or L forms follow the SMILES beside them.

The EC50 is the concentration at which the effect is half-maximal. Low values mean an effect from little substance, high ones a need for much substance. Usually MIC stands for the least concentration at which growth counts as inhibited. Low values mean a more susceptible organism, high ones a less susceptible organism. One may read the MBC as the lowest tested concentration that kills the bacteria rather than only halting them. High values mean weaker bactericidal potency, low ones greater bactericidal potency. `CO/N=C(\C(=O)N[C@@H]1C(=O)N2C(C(=O)O)=C(CSC(=O)c3ccco3)CS[C@H]12)c1csc(N)n1` [Ceftiofur]: the “mean PAE range” value with S. aureus ATCC 43300 [1] was 0.82 to 1.76 h. In addition, the EC50 in the assay on S. aureus E48 [2] was determined as 1180 nM; in the assay with S. aureus ATCC 25923 [3], 710 nM. For the same compound, the figures for the Cs in the assay on S. aureus E48 [2] and in the assay on S. aureus ATCC 25923 [3] were 1.11 µM and 0.77 µM, respectively. The MIC in the assay on S. aureus ATCC 43300 [4], in the assay with S. aureus E48 [5] and against S. aureus ATCC 25923 [6] was 1.83 µM (≈ 0.958 µg/mL) throughout. In addition, the figures for the MBC against S. aureus ATCC 43300 [4], against S. aureus E48 [5] and in the assay with S. aureus ATCC 25923 [6] were 1.83 µM (≈ 0.958 µg/mL), 3.67 µM (≈ 1.92 µg/mL) and 3.67 µM (≈ 1.92 µg/mL), respectively. Besides, the “bacteria reduction in mammary tissues” value with S. aureus ATCC 43300 [7] (100 μg/gland intramammary) is reported as 4.82 Log10 CFU/g.

With `CCC[C@@H]1C[C@@H](C(=O)N[C@@H]([C@H]2O[C@H](SC)[C@H](O)[C@@H](O)[C@H]2O)[C@@H](C)O)N(C)C1` [Lincomycin], the EC50 in the assay on S. aureus E48 [2] is 1470 nM; with S. aureus ATCC 25923 [3], 2310 nM. Moreover, the Cs with S. aureus E48 [2] turned out to be 1.38 µM; in the assay on S. aureus ATCC 25923 [3] it was 2.57 µM. The MIC is greater than 139 µM in the assay on S. aureus ATCC 43300 [4], 2.17 µM (≈ 0.882 µg/mL) with S. aureus E48 [5] and 2.17 µM (≈ 0.882 µg/mL) in the assay on S. aureus ATCC 25923 [6]. Also, the MBC in the assay with S. aureus ATCC 43300 [4] is greater than 139 µM; against S. aureus E48 [5], 4.34 µM (≈ 1.76 µg/mL); against S. aureus ATCC 25923 [6], 4.34 µM (≈ 1.76 µg/mL).

As for `CC[C@H](C)[C@@H]1NC(=O)[C@H](CO)NC(=O)[C@H](CCCCN)NC(=O)[C@@H]2CSSC[C@@H](C(=O)N[C@@H](Cc3ccc(O)cc3)C(=O)O)NC(=O)[C@H](CCCCN)NC(=O)[C@@H]3CSSC[C@H](NC(=O)[C@H](CCC(N)=O)NC(=O)[C@H]([C@@H](C)CC)NC(=O)[C@H](CC(=O)O)NC(=O)[C@H](CC(=O)O)NC(=O)[C@H](CCC(=O)O)NC(=O)[C@H](CO)NC(=O)[C@H](Cc4c[nH]c5ccccc45)NC(=O)[C@@H]4CCCN4C(=O)CNC(=O)[C@H](CC(N)=O)NC(=O)[C@@H](NC(=O)CNC(=O)[C@H](Cc4ccccc4)NC(=O)CN)CSSC[C@H](NC(=O)[C@H](Cc4ccc(O)cc4)NC(=O)CNC(=O)CNC(=O)[C@H](CCCCN)NC(=O)[C@H](Cc4ccc(O)cc4)NC(=O)CNC(=O)[C@H](CCCCN)NC1=O)C(=O)N[C@@H](C)C(=O)N[C@@H](CCCNC(=N)N)C(=O)NCC(=O)NCC(=O)N[C@@H](Cc1ccccc1)C(=O)N[C@@H](C(C)C)C(=O)N3)C(=O)N[C@@H](Cc1c[nH]cn1)C(=O)N[C@@H](CC(N)=O)C(=O)N[C@@H](Cc1c[nH]cn1)C(=O)N2` [NZX] (H-GFGCNGPWSEDDIQCHNHCKSIKGYKGGYCARGGFVCKCY-OH; disulfide 4-30, 15-37, 19-39; N-terminus and C-terminus assumed), the “mean PAE range” value in the assay with S. aureus ATCC 43300 [1] fell in the range of 0.00 to 8.48 h. Besides, the entries for the “bacteria reduction in mammary tissues” value in the assay with S. aureus ATCC 43300 [7] (100 μg/gland intramammary), in the assay with S. aureus ATCC 43300 [7] (400 μg/gland intramammary) and with S. aureus ATCC 43300 [7] (range over 25 ~ 400 μg/gland intramammary) were 3.47 Log10 CFU/g, 8.81 Log10 CFU/g and 0.66 ~ 8.81 Log10 CFU/g, respectively.
